Measured values as given in the NIST ThermoML archive (doi:10.1021/je034153o).
Values joined by “and” are separate entries in the source; they are usually repeats but may differ in a detail not shown here. Identical values can stand only once. Numbers after ± are expanded uncertainties.

Details: 303.15 K; Liquid; Closed cell (Static) method

SMILES	vapor or sublimation pressure
CCOCCO [2-ethoxyethan-1-ol]	0.981 ± 0.017 kPa and 0.984 ± 0.017 kPa and 0.968 ± 0.017 kPa
ClC(Cl)Cl [trichloromethane]	32.41 ± 0.13 kPa
ClC(Cl)(Cl)Cl [tetrachloromethane]	18.83 ± 0.083 kPa
ClCCl [dichloromethane]	70.49 ± 0.27 kPa
